Values quoted from earlier work, collected in patent US20060069047A1, “Antibiotic conjugates” (priority 2002, published 2006).

How the values were obtained:
[1] = test system: PMN; settings: intracellular/extracellular concentration, PMN incubated 1 h
[2] = in vivo
[3] = test system: phagocytic cells

Row | I/E ratio [1] | half-life (t1/2) [2] [h] | cellular-to-extracellular concentration ratio (C/E) [3] | SMILES
1 | 197 |  |  | CC[C@H]1OC(=O)[C@H](C)C(=O)[C@H](C)[C@@H](O[C@@H]2O[C@H](C)C[C@H](N(C)C)[C@H]2O)[C@](C)(OC)C[C@@H](C)C(=O)[C@H](C)[C@H]2N(CCCCn3cnc(-c4cccnc4)c3)C(=O)O[C@]12C [Telithromycin]
2 | 4.8 |  |  | C[C@H]1COc2c(N3CCN(C)CC3)c(F)cc3c(=O)c(C(=O)O)cn1c23 [Levofloxacin]
3 | 12.0 |  |  | COc1c(N2C[C@@H]3CCCN[C@@H]3C2)c(F)cc2c(=O)c(C(=O)O)cn(C3CC3)c12 [Moxifloxacin]
4 | 517 | ~68 | ~500 | CC[C@H]1OC(=O)[C@H](C)[C@@H](O[C@H]2C[C@@](C)(OC)[C@@H](O)[C@H](C)O2)[C@H](C)[C@@H](O[C@@H]2O[C@H](C)C[C@H](N(C)C)[C@H]2O)[C@](C)(O)C[C@@H](C)CN(C)[C@H](C)[C@@H](O)[C@]1(C)O [Azithromycin]
5 | 0.16 |  |  | CC1(C)SC2C(NC(=O)Cc3ccccc3)C(=O)N2C1C(=O)O (stereo not shown) [Penicillin G, 3,3-Dimethyl-7-oxo-6-phenylacetylamino-4-thia-1-aza-bicyclo[3.2.0]heptane-2-carboxylic acid]
